Test [1] addresses Dual specificity protein kinase CLK4 (Homo sapiens, UniProt Q9HAZ1). Type of test: functional.
Test [2] deals with Leucine-rich repeat serine/threonine-protein kinase 2 (Homo sapiens, UniProt Q5S007). Type of test: functional.
The target of test [3] is Platelet-derived growth factor receptor alpha (Homo sapiens, UniProt P16234). Briefly: Navigating the Kinome. Panel member name: PDGFRA. It counts as functional.
Another test concerns the target Focal adhesion kinase 1 (Homo sapiens, UniProt Q05397). It counts as functional.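 Also: measured as one member of a kinome panel.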
Test [4] concerns the target Cyclin-dependent kinase 7 (Homo sapiens, UniProt P50613). It counts as functional.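 Also: value comes from a kinome-wide kinase profiling panel in which CDK7 is one member.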
Test [5] concerns the target Inhibitor of nuclear factor kappa-B kinase subunit epsilon (Homo sapiens, UniProt Q14164). Briefly: Navigating the Kinome. Panel member name: IKBKE. It counts as functional.
Another test concerns the target Activated CDC42 kinase 1 (Homo sapiens, UniProt Q07912). Briefly: Navigating the Kinome. Panel member name: ACK1. It counts as functional.
The target in test [6] is Dual specificity mitogen-activated protein kinase kinase 1 (Homo sapiens, UniProt Q02750). The experiment in a line: Navigating the Kinome. Panel member name: MAP2K1. It counts as functional.
Chain of Dual specificity mitogen-activated protein kinase kinase 1 (Q02750 whole entry): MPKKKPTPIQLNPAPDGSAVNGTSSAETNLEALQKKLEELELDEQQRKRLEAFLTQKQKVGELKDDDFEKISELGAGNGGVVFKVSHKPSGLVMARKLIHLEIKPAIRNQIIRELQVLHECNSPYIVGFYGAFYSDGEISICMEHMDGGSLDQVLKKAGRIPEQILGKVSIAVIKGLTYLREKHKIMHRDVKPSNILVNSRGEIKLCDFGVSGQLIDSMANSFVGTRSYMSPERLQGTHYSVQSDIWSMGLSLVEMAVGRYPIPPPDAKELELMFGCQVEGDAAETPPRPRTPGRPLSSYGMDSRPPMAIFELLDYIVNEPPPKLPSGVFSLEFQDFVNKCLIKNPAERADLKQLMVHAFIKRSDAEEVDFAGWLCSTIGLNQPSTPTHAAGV
The target of test [7] is Platelet-derived growth factor receptor beta (Homo sapiens, UniProt P09619). Type of test: functional.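 Also: value comes from a kinome panel, with PDGFRB tested as one panel member.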
Test [8] addresses Serine/threonine-protein kinase TAO1 (Homo sapiens, UniProt Q7L7X3). It counts as functional.
The target of test [9] is Tyrosine-protein kinase Blk (Homo sapiens, UniProt P51451). It counts as functional.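 Also: obtained as one member of a kinome-wide kinase assay panel.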
The target of test [10] is 3-phosphoinositide-dependent protein kinase 1 (Homo sapiens, UniProt O15530). It counts as functional.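 Also: value comes from the Navigating the Kinome panel, PDPK1 member.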
Test [11] has as its target Non-receptor tyrosine-protein kinase TYK2 (Homo sapiens, UniProt P29597). It counts as functional.
In test [12] the target is Calcium/calmodulin-dependent protein kinase type 1 (Homo sapiens, UniProt Q14012). Type of test: functional.
Chain of Calcium/calmodulin-dependent protein kinase type 1 (Q14012 whole entry): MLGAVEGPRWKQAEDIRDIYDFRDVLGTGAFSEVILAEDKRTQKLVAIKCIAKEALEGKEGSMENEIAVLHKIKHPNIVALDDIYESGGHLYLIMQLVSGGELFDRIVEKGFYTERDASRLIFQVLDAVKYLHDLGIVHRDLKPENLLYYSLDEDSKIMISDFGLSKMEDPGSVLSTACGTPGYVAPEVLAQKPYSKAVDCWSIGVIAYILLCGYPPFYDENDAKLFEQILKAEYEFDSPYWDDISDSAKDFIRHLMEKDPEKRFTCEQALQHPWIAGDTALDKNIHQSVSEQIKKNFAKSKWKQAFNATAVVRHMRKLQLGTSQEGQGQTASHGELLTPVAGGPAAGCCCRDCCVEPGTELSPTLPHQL
In test [13] the target is Serine/threonine-protein kinase pim-2 (Homo sapiens, UniProt Q9P1W9). It counts as functional.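 Also: value comes from a broad kinase panel profiling study in which PIM2 was one of the panel members.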
Test [14] has as its target Ribosomal protein S6 kinase beta-1 (Homo sapiens, UniProt P23443). Type of test: functional.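 Also: measured as one member of a kinome-wide profiling panel.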
Test [15] has as its target Serine/threonine-protein kinase 3 (Homo sapiens, UniProt Q13188). It counts as functional.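 Also: measured as one member of a kinome-wide kinase panel.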
Test [16] concerns the target Receptor tyrosine-protein kinase erbB-2 (Homo sapiens, UniProt P04626). Briefly: Navigating the Kinome. Panel member name: ERBB2. It counts as functional.
Test [17] deals with MAP kinase-activated protein kinase 2 (Homo sapiens, UniProt P49137). Type of test: functional.
Chain of MAP kinase-activated protein kinase 2 (P49137 whole entry): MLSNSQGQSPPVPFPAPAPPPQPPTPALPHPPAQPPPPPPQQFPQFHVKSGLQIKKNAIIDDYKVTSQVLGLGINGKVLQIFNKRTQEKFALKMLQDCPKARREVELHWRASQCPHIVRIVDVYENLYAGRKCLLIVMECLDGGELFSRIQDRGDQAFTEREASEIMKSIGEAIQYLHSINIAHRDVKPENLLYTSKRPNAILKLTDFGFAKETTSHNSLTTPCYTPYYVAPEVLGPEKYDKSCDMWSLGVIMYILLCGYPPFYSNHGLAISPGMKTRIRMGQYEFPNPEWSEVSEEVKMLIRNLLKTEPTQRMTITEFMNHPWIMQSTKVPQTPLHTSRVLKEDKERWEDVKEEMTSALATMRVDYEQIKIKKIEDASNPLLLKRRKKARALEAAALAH
In test [18] the target is Serine/threonine-protein kinase D2 (Homo sapiens, UniProt Q9BZL6). Type of test: functional.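 Also: measured against PRKD2 as one member of a kinome-wide kinase profiling panel.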
Test [19] has as its target Casein kinase II subunit alpha (Homo sapiens, UniProt P68400). Type of test: functional.
Another test deals with T1, Hexokinase HKDC1 (Homo sapiens, UniProt Q2TB90).
T1 sequence (Q2TB90 whole entry): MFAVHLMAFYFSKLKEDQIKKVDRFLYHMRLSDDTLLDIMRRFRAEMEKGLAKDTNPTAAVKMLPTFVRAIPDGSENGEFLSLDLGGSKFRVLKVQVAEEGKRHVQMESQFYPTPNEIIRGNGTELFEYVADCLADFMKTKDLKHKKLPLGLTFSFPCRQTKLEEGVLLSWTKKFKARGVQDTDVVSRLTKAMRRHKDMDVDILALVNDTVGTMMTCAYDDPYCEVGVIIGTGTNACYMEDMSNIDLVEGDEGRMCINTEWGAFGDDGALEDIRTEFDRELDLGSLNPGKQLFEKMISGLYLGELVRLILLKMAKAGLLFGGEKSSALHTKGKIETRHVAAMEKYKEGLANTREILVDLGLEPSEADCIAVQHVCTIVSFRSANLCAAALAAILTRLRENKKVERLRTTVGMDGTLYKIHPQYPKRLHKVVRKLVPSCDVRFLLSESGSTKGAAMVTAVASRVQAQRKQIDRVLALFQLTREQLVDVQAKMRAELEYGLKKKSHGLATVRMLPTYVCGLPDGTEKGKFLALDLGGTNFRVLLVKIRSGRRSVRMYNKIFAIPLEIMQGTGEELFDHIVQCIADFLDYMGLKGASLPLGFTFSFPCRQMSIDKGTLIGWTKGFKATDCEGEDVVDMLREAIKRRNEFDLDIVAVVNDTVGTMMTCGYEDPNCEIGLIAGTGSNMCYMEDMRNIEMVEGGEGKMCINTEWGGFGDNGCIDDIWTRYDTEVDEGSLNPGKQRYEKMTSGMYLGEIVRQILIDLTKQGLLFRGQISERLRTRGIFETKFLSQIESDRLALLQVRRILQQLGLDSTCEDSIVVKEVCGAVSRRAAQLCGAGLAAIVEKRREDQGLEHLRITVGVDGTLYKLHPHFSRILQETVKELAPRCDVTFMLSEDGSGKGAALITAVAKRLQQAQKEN
Briefly: inhibition of HKDC1 glucose phosphorylation – biochemical, W721R variant, dose response (AID 504729). It counts as functional.

Test [20] addresses 1-phosphatidylinositol 4,5-bisphosphate phosphodiesterase beta-3 (Homo sapiens, UniProt Q01970). The experiment in a line: Fluorescence-based biochemical high throughput dose response assay to identify inhibitors of phospholipase C isozymes (PLC-B3).
The target in test [21] is T2, Long-chain-fatty-acid--AMP ligase FadD28 (Mycobacterium tuberculosis, UniProt P9WQ59).
T2 sequence (P9WQ59 whole entry): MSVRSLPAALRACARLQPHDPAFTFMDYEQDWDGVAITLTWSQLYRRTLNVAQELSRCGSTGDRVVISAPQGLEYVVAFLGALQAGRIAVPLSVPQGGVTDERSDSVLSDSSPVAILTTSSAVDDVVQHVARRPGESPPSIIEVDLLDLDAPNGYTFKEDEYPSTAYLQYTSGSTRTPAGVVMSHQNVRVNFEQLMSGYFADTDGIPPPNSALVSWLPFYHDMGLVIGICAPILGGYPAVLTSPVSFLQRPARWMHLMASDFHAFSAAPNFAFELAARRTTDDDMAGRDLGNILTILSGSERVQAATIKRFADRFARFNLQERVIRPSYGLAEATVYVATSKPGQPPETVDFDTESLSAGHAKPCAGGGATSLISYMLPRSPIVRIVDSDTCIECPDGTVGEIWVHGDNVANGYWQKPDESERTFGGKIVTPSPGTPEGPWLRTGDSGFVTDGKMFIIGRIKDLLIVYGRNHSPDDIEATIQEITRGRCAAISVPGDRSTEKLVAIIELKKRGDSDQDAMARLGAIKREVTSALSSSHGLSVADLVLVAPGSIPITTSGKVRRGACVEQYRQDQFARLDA
Briefly: Fluorescence polarization aasay to screen for inhibitors that compete for the binding of FadD28 to a bisubstrate Measured in Biochemical System Using Plate Reader - 2147-01_Inhibitor_Dose_CherryPick_Activity. It counts as functional, Mycobacterium tuberculosis H37Rv. (In general: Fluorescence polarisation rises when a labelled molecule tumbles more slowly, as on binding a larger partner.)

The record followed here is ChEMBL document CHEMBL1201862, “PubChem BioAssay data set” (2004).

Activity calls are given as the source filed them.

Chain of Dual specificity protein kinase CLK4 (Q9HAZ1 whole entry): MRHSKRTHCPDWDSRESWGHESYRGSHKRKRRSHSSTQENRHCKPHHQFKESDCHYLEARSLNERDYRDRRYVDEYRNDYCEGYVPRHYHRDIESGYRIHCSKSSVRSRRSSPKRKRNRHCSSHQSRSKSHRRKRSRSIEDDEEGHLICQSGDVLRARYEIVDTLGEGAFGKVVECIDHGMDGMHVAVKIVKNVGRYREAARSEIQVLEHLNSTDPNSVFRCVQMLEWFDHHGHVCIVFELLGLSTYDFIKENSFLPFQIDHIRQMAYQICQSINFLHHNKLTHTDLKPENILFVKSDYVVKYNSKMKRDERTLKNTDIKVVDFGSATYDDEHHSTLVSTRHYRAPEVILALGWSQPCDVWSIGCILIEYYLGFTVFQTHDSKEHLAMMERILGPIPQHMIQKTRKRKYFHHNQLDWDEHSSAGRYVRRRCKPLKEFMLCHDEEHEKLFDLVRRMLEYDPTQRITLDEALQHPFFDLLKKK
Chain of Inhibitor of nuclear factor kappa-B kinase subunit epsilon (Q14164 whole entry): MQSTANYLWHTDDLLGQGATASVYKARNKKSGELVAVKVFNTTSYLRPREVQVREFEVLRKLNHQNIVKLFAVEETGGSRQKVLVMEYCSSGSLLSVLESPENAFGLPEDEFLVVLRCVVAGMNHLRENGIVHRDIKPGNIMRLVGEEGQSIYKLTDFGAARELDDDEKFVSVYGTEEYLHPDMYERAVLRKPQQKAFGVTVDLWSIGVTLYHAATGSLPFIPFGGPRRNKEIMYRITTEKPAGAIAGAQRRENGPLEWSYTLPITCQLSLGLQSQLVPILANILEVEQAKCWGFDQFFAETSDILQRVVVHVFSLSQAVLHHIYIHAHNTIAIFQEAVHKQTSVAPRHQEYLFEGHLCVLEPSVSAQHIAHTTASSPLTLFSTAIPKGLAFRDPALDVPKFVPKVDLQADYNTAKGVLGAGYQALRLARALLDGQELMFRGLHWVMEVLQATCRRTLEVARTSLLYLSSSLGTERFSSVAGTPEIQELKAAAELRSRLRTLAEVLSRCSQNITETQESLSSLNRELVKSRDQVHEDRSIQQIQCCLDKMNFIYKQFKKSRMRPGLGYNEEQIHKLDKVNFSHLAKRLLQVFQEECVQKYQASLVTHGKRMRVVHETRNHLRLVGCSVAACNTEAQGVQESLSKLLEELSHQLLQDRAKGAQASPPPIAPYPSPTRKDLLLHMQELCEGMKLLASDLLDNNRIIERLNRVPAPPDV
Chain of Focal adhesion kinase 1 (Q05397 whole entry): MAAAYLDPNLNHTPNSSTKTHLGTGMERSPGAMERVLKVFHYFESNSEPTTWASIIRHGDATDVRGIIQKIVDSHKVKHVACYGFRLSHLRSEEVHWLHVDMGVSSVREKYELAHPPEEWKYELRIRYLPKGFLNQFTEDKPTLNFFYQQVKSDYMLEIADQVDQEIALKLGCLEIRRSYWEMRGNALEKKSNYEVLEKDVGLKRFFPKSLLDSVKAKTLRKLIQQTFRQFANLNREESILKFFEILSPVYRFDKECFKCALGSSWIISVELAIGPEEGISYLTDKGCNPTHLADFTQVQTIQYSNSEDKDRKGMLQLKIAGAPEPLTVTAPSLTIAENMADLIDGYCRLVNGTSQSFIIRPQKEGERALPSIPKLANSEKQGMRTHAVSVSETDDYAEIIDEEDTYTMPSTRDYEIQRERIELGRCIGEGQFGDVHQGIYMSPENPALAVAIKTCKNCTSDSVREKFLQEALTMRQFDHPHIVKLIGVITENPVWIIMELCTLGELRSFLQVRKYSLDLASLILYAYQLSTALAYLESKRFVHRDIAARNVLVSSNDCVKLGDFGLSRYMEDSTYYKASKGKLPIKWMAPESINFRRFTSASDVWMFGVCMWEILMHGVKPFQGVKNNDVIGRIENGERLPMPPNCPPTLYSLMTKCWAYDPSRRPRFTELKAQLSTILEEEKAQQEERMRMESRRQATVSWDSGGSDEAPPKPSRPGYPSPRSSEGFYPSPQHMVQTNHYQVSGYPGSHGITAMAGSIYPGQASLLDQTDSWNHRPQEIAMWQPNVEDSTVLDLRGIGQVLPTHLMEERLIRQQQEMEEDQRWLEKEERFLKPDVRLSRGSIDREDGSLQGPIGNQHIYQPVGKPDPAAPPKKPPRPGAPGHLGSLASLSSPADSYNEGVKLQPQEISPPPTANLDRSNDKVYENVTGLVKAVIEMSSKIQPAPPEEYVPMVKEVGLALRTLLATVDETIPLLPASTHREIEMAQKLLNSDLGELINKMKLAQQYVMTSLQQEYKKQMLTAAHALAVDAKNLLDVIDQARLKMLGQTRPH
Chain of Cyclin-dependent kinase 7 (P50613 whole entry): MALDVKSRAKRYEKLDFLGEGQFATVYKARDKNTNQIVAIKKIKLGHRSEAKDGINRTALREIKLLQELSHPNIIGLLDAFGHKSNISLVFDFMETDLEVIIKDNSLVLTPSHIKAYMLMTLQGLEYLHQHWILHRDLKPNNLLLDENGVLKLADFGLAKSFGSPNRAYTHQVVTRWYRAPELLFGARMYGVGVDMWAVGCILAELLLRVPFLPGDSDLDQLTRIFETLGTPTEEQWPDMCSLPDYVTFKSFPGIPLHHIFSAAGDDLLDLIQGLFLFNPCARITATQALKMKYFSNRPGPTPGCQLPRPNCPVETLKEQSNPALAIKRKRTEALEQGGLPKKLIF
Chain of 1-phosphatidylinositol 4,5-bisphosphate phosphodiesterase beta-3 (Q01970 whole entry): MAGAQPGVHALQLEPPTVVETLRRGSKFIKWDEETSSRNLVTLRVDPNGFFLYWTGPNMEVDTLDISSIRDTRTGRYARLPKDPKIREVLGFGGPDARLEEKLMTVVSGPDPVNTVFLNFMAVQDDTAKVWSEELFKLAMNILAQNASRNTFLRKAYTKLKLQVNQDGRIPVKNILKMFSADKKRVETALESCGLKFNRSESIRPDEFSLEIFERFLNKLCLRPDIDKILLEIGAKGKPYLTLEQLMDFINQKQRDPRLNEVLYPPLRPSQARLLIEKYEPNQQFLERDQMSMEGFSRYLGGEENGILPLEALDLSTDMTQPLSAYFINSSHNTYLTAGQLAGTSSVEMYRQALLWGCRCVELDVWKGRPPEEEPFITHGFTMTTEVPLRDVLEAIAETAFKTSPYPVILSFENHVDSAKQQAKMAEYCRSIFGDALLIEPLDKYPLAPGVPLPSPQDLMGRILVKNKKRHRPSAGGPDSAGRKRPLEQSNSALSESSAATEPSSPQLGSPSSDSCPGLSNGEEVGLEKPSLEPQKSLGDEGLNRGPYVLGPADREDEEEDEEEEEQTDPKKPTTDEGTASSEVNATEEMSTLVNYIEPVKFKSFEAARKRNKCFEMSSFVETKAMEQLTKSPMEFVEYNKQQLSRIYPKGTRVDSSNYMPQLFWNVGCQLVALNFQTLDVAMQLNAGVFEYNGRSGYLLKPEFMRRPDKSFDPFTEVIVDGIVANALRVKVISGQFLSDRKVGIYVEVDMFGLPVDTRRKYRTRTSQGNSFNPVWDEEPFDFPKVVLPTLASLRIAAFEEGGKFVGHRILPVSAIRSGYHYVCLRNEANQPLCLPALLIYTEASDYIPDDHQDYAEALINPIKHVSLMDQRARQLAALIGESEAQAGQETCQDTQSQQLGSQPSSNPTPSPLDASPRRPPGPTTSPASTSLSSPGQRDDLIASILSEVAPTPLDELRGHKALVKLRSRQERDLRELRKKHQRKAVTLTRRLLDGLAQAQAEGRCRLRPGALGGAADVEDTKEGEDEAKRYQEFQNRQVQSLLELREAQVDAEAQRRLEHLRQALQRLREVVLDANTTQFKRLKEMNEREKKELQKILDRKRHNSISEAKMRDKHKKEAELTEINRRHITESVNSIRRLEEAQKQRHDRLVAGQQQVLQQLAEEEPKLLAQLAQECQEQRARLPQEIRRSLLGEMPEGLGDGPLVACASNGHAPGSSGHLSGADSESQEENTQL

Consider `Cc1cc(=O)[nH]nc1-c1ccc(NC(=O)Nc2cc(C(F)(F)F)ccc2F)c(Cl)c1`, for which the Ki in test [1] was > 2.51 µM (inactive); in test [2], > 2.51 µM (inactive); in [3], 0.2 µM (active); at Focal adhesion kinase 1, > 6.31 µM (inactive); in test [4] it was > 3.98 µM (inactive); in test [5], > 3.16 µM (inactive). Further, the Ki was > 3.98 µM (inactive) on Activated CDC42 kinase 1, > 3.16 µM (inactive) in test [6], 0.158 µM (active) in [7] and > 6.31 µM (inactive) in [8].
For the molecule `CCOC(=O)c1cn(-c2ccc(O)cc2C)c2cc(-c3ccncc3)ccc2c1=O`, the Ki is > 1.58 µM (inactive) in [9]; > 3.98 µM (inactive) in test [10]; > 2 µM (inactive) in test [11]; > 7.94 µM (inactive) in [12]; > 1.58 µM (inactive) in [13]; > 6.31 µM (inactive) in [14]. In addition, the Ki is > 7.94 µM (inactive) in test [15]; > 1.58 µM (inactive) in test [16]; > 7.94 µM (inactive) in test [17]; > 10 µM (inactive) in test [18]; > 6.31 µM (inactive) in test [19].
On to `O=C1C=C(NCc2ccccc2)c2ccccc2C1=O`, for which the IC50 at Hexokinase HKDC1 is 2.5 µM (active).
Regarding `O=C(O)c1[nH]c2ccccc2c1C(c1cc(Cl)cc([N+](=O)[O-])c1O)c1c(C(=O)O)[nH]c2ccccc12`, the IC50 in test [20] is > 122 µM (inactive). Further, in test [21], the AC50 is 7.15 µM (active).

Broadly, the Ki is a measure of affinity in units of concentration, obtained from inhibition or displacement. Broadly, the IC50 is the concentration that inhibits the measured activity by half. The AC50 is the midpoint of the concentration-response curve, whichever way the signal moves.
